Reference: the supplement of paper PMC13380429

Columns and labels:
Settings in all cases: 72 h
HepG2 [1] = test: cell viability relative to DMSO; higher = less toxic
Caco-2 [2] = test: as above
Vero E6 [3] = test: as above
U2OS [4] = test: as above
Calu-3 [5] = test: as above
HepG2 [6] = test: drug sensitivity score (DSS) for viability; higher = more toxic; extreme values may be limits of the assay
Caco-2 [7] = test: as above
Vero E6 [8] = test: as above
U2OS [9] = test: as above
Calu-3 [10] = test: as above
HepG2 [11] = test: relative viability EC50 (midpoint between 100% and the lowest measured viability); higher = less toxic
Caco-2 [12] = test: as above
Vero E6 [13] = test: as above
U2OS [14] = test: as above
Calu-3 [15] = test: as above

Compound	cell viability (HepG2 [1]; 1 nM) [%]	cell viability (HepG2 [1]; 10 nM) [%]	cell viability (HepG2 [1]; 100 nM) [%]	cell viability (HepG2 [1]; 1000 nM) [%]	cell viability (HepG2 [1]; 10000 nM) [%]	cell viability (Caco-2 [2]; 1 nM) [%]	cell viability (Caco-2 [2]; 10 nM) [%]	cell viability (Caco-2 [2]; 100 nM) [%]	cell viability (Caco-2 [2]; 1000 nM) [%]	cell viability (Caco-2 [2]; 10000 nM) [%]	cell viability (Vero E6 [3]; 1 nM) [%]	cell viability (Vero E6 [3]; 10 nM) [%]	cell viability (Vero E6 [3]; 100 nM) [%]	cell viability (Vero E6 [3]; 1000 nM) [%]	cell viability (Vero E6 [3]; 10000 nM) [%]	cell viability (U2OS [4]; 1 nM) [%]	cell viability (U2OS [4]; 10 nM) [%]	cell viability (U2OS [4]; 100 nM) [%]	cell viability (U2OS [4]; 1000 nM) [%]	cell viability (U2OS [4]; 10000 nM) [%]	cell viability (Calu-3 [5]; 1 nM) [%]	cell viability (Calu-3 [5]; 10 nM) [%]	cell viability (Calu-3 [5]; 100 nM) [%]	cell viability (Calu-3 [5]; 1000 nM) [%]	cell viability (Calu-3 [5]; 10000 nM) [%]	drug sensitivity score (HepG2 [6])	drug sensitivity score (Caco-2 [7])	drug sensitivity score (Vero E6 [8])	drug sensitivity score (U2OS [9])	drug sensitivity score (Calu-3 [10])	relative viability EC50 (HepG2 [11]) [µM]	relative viability EC50 (Caco-2 [12]) [µM]	relative viability EC50 (Vero E6 [13]) [µM]	relative viability EC50 (U2OS [14]) [µM]	relative viability EC50 (Calu-3 [15]) [µM]
CS(=O)(=O)Nc1ccc2oc3c(OC(F)F)ccc(C(=O)Nc4c(Cl)cncc4Cl)c3c2c1 [oglemilast]	96.1	87.9	93.3	86	89.8	108	101	92.2	103	90.1	102	95.9	96.2	90.5	99.8	97.6	104	97	101	94.2	91	88.4	100	92.7	81.1	0.6	0	0	0	1.3	> 10	> 10	> 10	> 10	> 10
CS(=O)(=O)n1cc2c(n1)CN([C@H]1CO[C@H](c3cc(F)ccc3F)[C@@H](N)C1)C2 [omarigliptin]	103	106	101	99.7	103	92.5	101	95.4	97.5	106	97.8	103	95.5	98.7	103	97.8	96.8	94.2	101	104	98.4	97.7	88.4	108	100	0	0	0	0	0	> 10	> 10	> 10	> 10	> 10
CC[N+](C)(CC)CCOC(=O)C(O)(c1ccccc1)C1CCCCC1 (stereo not given) [oxyphenonium]	90.4	94.1	98.1	86.2	99.4	88.6	98.4	88.7	101	95.6	95.9	97.2	100	99.4	96.8	97.8	100	98.8	98.3	96.6	92.9	106	97.5	99.2	87.2	0	0	0	0	0.1	> 10	> 10	> 10	> 10	> 10
O=P(O)(NCCCl)NCCCl [palifosfamide]	100	102	95.3	106	108	94.4	93.7	103	98.4	93.7	93.5	95.9	91.7	98.1	107	100	94	102	98.9	97.2	91.6	101	99.4	98.8	105	0	0	0	0	0	> 10	> 10	> 10	> 10	> 10
NCCC(O)(P(=O)(O)O)P(=O)(O)O [pamidronate]	106	105	97.5	108	106	87.2	104	106	96	97.2	100	94.8	96.2	97.9	101	98.7	101	95.6	101	99	92.7	111	100	98.9	93.8	0	0	0	0	0	> 10	> 10	> 10	> 10	> 10
Oc1cc(O)cc(/C=C/c2ccc(O)c(O)c2)c1 [piceatannol]	98.8	87.3	105	92.7	97.7	90.2	93.7	101	96.1	86	103	94.1	94.8	92.1	101	97.5	98.2	94.2	100	96.1	95.3	93.5	90.4	99.9	88.9	0	0.5	0	0	0	> 10	> 10	> 10	> 10	> 10
Cc1cccc(C)c1NC(=O)CN1CCCCCC1 [pincainide]	99.2	106	118	104	106	94.3	102	94.1	110	82	98.7	87.8	95.7	89.2	107	97.7	103	98	101	101	95.1	96	99	98.7	97.5	0	0.2	0	0	0	> 10	> 10	> 10	> 10	> 10
CO[C@H](C(=O)[C@@H](O)[C@@H](C)O)[C@@H]1Cc2cc3cc(O[C@H]4C[C@@H](O[C@H]5C[C@@H](O)[C@H](O)[C@@H](C)O5)[C@@H](O)[C@@H](C)O4)c(C)c(O)c3c(O)c2C(=O)[C@H]1O[C@H]1C[C@@H](O[C@H]2C[C@@H](O[C@H]3C[C@](C)(O)[C@H](O)[C@@H](C)O3)[C@H](O)[C@@H](C)O2)[C@H](O)[C@@H](C)O1 [plicamycin]	107	99.9	5.2	4.4	6.1	101	95	42.4	58.1	65.5	92.6	105	95.6	73.5	4.9	96.4	100	5.9	1	1.5	107	88.4	48.5	24	28.1	29.1	18.9	9.2	29.5	20.8	0.0321	0.0245	1.46	0.036	0.0509
N[C@@H](Cc1ccc(O)cc1)C(=O)O [plovamer-acetate]	87.2	94.4	93	90.1	80.1	119	83.9	84.4	90.7	92.1	106	102	96.3	104	95.5	99.1	94.8	102	93.3	97.6	97.9	98.5	105	104	102	0	4.2	0	0	0	> 10	> 10	> 10	> 10	> 10
COCCCN1CCC(NC(=O)c2cc(Cl)c(N)c3c2OCC3)CC1 [prucalopride]	96.7	102	96.5	91	96.5	102	82.8	102	102	101	106	103	105	101	95	96.9	97.7	97.7	97.9	102	104	97	90.1	97.6	94.9	0	0	0	0	0	> 10	> 10	> 10	> 10	> 10
CCN1CCC[C@H]1CNC(=O)c1c(O)c(Cl)cc(Cl)c1OC [raclopride]	99.6	104	93.7	101	93.1	91.2	88.3	93.5	84	96.6	101	100	94.7	93	100	101	95.2	96.6	95	99.9	97.9	94	92.4	96.7	97.4	0	0	0	0	0	> 10	> 10	> 10	> 10	> 10
COC(=O)CC[C@@H]1N=C(c2ccccn2)c2cc(Br)ccc2-n2c(C)cnc21 [remimazolam]	97.1	83.5	103	100	108	95.2	101	95.3	99.2	91.7	103	96.5	99.3	96	99.8	96.4	105	97.7	98	97.8	104	94.1	111	90	95.2	0	0	0	0	0	> 10	> 10	> 10	> 10	> 10
NC(=O)c1ncn([C@@H]2O[C@H](CO)[C@@H](O)[C@H]2O)n1 [ribavirin]	95.7	104	99.8	121	86.7	109	97.6	108	113	82.9	101	101	98.5	104	104	92	93.8	99.5	95.9	113	104	108	111	88.6	92.9	0	0.2	0	0	0.3	> 10	> 10	> 10	> 10	> 10
Cc1ccc(NC2=CC(=O)c3sc(C)nc3C2=O)cc1 [ryuvidine]	95.4	106	97.9	98.1	8.5	94.2	91.8	92.7	77.9	0.9	100	97.7	97.4	96.4	16.2	102	97.3	104	99.3	0	115	95.8	109	102	2.7	5.3	9	5.2	5.7	5.2	3.02	1.64	2.84	3.12	3.29
